# Measured values reported in patent US20060135571A1, “Imidazo(2,1-b)-1,3,4-thiadiazole sulfoxides and sulfones” (priority 2003, published 2006).
# Tests used:
# SCG neurons [1] = test: In vitro protection of SCG neurons from Taxol killing; assay type: cell-based, Sprague Dawley rats; details: Rattus norvegicus, Neuron, read-out: IC50, rescue from Taxol killing of SCG neurons
# Procedure: Taxol™ is regularly used in breast cancer chemotherapy. In cancer cells Taxol™ binds to the cyto-skeletal protein tubulin, thereby inhibiting normal microtubular assembly and inducing cellular apoptosis. Despite its potency as an anti-tumour agent, Taxol™ is also toxic to neurons, inducing dose limiting peripheral neuropathies. The addition of Taxol™ (100 ng/mL) to cultured SCG neurons induces the degradation or loss of upwards of 80% of the neurons. The addition of selected compounds of Formula I to the cellular media, concurrently with Taxol™, protects upwards of 100% of the neurons, at drug concentrations ranging from 1 to 50 μM (see Example 74).
# (§1) SCG neurons were isolated from day 1 neonatal Sprague Dawley rats, plated at a cell density of 10,000 cells/well, and incubated in Biowhittaker Utraculture containing 1% Penstrep, 1% L-glutamine, 0.7% ARAC, 3% rat serum, and NGF (50 ng/mL, Calomone Labs) at 37° C., under a 5% CO2 atmosphere. After 5 days the cells were treated with compound and Taxol™ (50 ng/mL). Viability was assessed 48 hours later using MTS (Promega) staining.
# SCG neurons [2] = test: In vitro protection of SCG neurons from cisplatin killing; assay type: cell-based, Sprague Dawley rats; details: Rattus norvegicus, Neuron; cisplatin 3 μg/mL, 48 hours, MTS viability; read-out: IC50, protection of SCG neurons against cisplatin killing
# Procedure: The mechanism of Cisplatin's anti-cancer action is not fully understood, but is believed to involve DNA binding and cleavage. Cisplatin is highly toxic to neurons. The addition of cisplatin (3 μg/mL) to cultured SCG neurons induces apoptosis of upwards of 80% of the neurons. The addition of selected compounds of Formula I to the cellular media, concurrently with cisplatin, protects upwards of 100% of the neurons, at drug concentrations ranging from 1 to 50 μM (see Example 75).
# as §1, with “cisplatin (3 μg/mL).” for “Taxol™ (50 ng/mL).”
# SCG neurons [3] = test: Protection of SCG neurons from anti-NGF killing; assay type: cell-based, Sprague Dawley rats; details: Rattus norvegicus, Neuron; anti-NGF antibody, 48 hours, Alamar Blue viability; read-out: IC(50), rescue from anti-NGF killing of SCG neurons
# Procedure: Neurotrophins are critical to the growth, development, and survival of small fiber neurons of the PNS. […] In a typical experiment SCG neurons are cultured in the presence of NGF, which induces survival and neurite out-growth. After 5 days the NGF is removed by either the addition of anti-NGF polyclonal antibody (Sigma) or by repeated washings (4 times) with NGF free media, resulting in the apoptosis of up to 90% of the neurons after 48 hours, as measured by MTS staining. The addition of selected compounds of Formula I to the final cellular media provides upwards of 100% protection, at drug concentrations ranging from 1 to 50 μM (see Example 73).
# SCG neurons were isolated from day 1 neonatal Sprague Dawley rats, plated at a cell density of 5,000 cells/well, and incubated in Biowhittaker Utraculture containing 1% Penstrep, 1% L-glutamine, 0.7% ARAC, 3% rat serum, and NGF (50 ng/mL, Calomone Labs), at 37° C., under a 5% CO2 atmosphere. After 4 days the cells were treated with anti-NGF antibody (Sigma). At this time compound was added and the cells were maintained serum and NGF free for 48 hours, at which time viability was assessed using Alamar Blue (Medicorp) staining.
# [4] = tested on: Daoy medulloblastoma cells; test: Sulforhodamine B assay, killing of Daoy medulloblastoma cells; assay type: cell-based
# Procedure: (§2) Compound represented by Formula I were tested for anti-cancer properties using the sulforhodamine B assay. Human neuroblastomas SK-N-AS, and SH-SY5Y were plated in 96 well plates at a density of 15 000 cells/well. Daoy medulloblastoma cells were plated at a density of 2000 cells/well. Cells were cultured in RPMI supplemented with 5% fetal bovine serum and test compounds. After 72 hours of culture cell growth was assessed by sulforhodamine B. Cellular protein was precipitated and fixed with trichloroacetic acid and detected by incubation with sulforhodamine B. Bound dye solubilized in trizma base and was assessed by absorbance at 515 nm. Compound 28 caused either cell death or inhibited cellular proliferation of the SK-N-AS and SH-SY5Y neuroblastoma and daoy medulloblastoma cells with ED50s of 7, 5, and 2 µM, respectively.
# (§3) Human neuroblastomas SK-N-AS, and SH-SY5Y were plated in 96 well plates at a density of 15 000 cells/well. Daoy medulloblastoma cells were plated at a density of 2000 cells/well. Cells were cultured in RPMI supplemented with 5% fetal bovine serum and test compound at various concentrations. After 72 hours of culture cell growth was assessed by sulforhodamine B. Cellular protein was precipitated and fixed with trichloroacetic acid and detected by incubation with sulforhodamine B. Bound dye solublized in trizma base and was assessed by absorbance at 515 nm.
# SK-N-AS = test: Sulforhodamine B assay, killing of SK-N-AS neuroblastoma cells; assay type: cell-based, Human
# Procedure: as §2, §3
# SH-SY5Y = test: Sulforhodamine B assay, killing of SH-SY5Y neuroblastoma cells; assay type: cell-based, Human
# Procedure: as §2, §3
# [5] = Aqueous solubility in saline; assay type: physicochemical; details: saline or isotonic, acid salt
# Procedure: Select compounds bearing a basic moiety display good aqueous solubility as the corresponding acid salt. For example, compound 56.2HCl is soluble at >100 mg/mL in saline, allowing for the ready application of these compounds via multiple routes of administration either oral or percutaneous.
# [6] = Taxol 50 ng/mL, 48 hours, MTS viability
Structure (SMILES),IC50 (SCG neurons [1]; [6]),other results
[O-][S+](Cc1ccccc1)c1nn2cc(-c3c(F)c(F)c(F)c(F)c3F)nc2s1 (stereo not drawn) [Compound 1],1000 nM,
O=S(=O)(Cc1ccccc1)c1nn2cc(-c3c(F)c(F)c(F)c(F)c3F)nc2s1 [Compound 2],,IC50 (SCG neurons [2]): 800 nM
[O-][S+](CCc1ccccc1)c1nn2cc(-c3ccc(Oc4ccc(Cl)cc4)cc3)nc2s1 (stereo not drawn) [Compound 3],7000 nM,IC50 (SCG neurons [3]): 8000 nM
O=S(=O)(CCc1ccccc1)c1nn2cc(-c3ccc(Oc4ccc(Cl)cc4)cc3)nc2s1 [Compound 4],1000 nM,IC50 (SCG neurons [3]): 6000 nM
[O-][S+](Cc1ccccn1)c1nn2cc(-c3ccccc3)nc2s1 (stereo not drawn) [Compound 5],1000 nM,
O=S(=O)(Cc1ccccn1)c1nn2cc(-c3ccccc3)nc2s1 [Compound 6],1500 nM,
O=S(=O)(Cc1cccnc1)c1nn2cc(-c3ccccc3)nc2s1 [Compound 8],800 nM,
[O-][S+](Cc1ccncc1)c1nn2cc(-c3ccccc3)nc2s1 (stereo not drawn) [Compound 9],800 nM,
O=S(=O)(Cc1ccncc1)c1nn2cc(-c3ccccc3)nc2s1 [Compound 10],800 nM,
[O-][S+](Cc1ccccn1)c1nn2cc(-c3cccc(F)c3)nc2s1 (stereo not drawn) [Compound 13],1000 nM,
O=S(=O)(Cc1ccccn1)c1nn2cc(-c3cccc(F)c3)nc2s1 [Compound 14],3000 nM,
[O-][S+](Cc1ccccn1)c1nn2cc(-c3ccc(Oc4ccc(Cl)cc4)cc3)nc2s1 (stereo not drawn) [Compound 15],1000 nM,
O=S(=O)(Cc1ccccn1)c1nn2cc(-c3ccc(Oc4ccc(Cl)cc4)cc3)nc2s1 [Compound 16],500 nM,IC50 (SCG neurons [2]): 500 nM
[O-][S+](Cc1ccncc1)c1nn2cc(-c3ccc(Oc4ccc(Cl)cc4)cc3)nc2s1 (stereo not drawn) [Compound 17],2000 nM,IC50 (SCG neurons [2]): 300 nM
O=S(=O)(Cc1ccncc1)c1nn2cc(-c3ccc(Oc4ccc(Cl)cc4)cc3)nc2s1 [Compound 18],,IC50 (SCG neurons [2]): 300 nM
[O-][S+](CCc1ccccn1)c1nn2cc(-c3ccc(F)cc3)nc2s1 (stereo not drawn) [Compound 19],6000 nM,IC50 (SCG neurons [2]): 800 nM
[O-][S+](CCN1CCOCC1)c1nn2cc(-c3ccc(F)cc3)nc2s1 (stereo not drawn) [Compound 28],5000 nM,"ED50, cell death or inhibited cellular proliferation ([4]; 72 hours, sulforhodamine B): 2000 nM; concentration at which the cell line is potently killed in vitro (as low as) ([4]; FIG. 1, sulforhodamine B): ≥ 5 µM; ED50, cell death or inhibited cellular proliferation (SK-N-AS; 72 hours, sulforhodamine B): 7000 nM; concentration at which the cell line is potently killed in vitro (as low as) (SK-N-AS; FIG. 1, sulforhodamine B): ≥ 5 µM; IC50 (SCG neurons [2]): 1000 nM; ED50, cell death or inhibited cellular proliferation (SH-SY5Y; 72 hours, sulforhodamine B): 5 µM; concentration at which the cell line is potently killed in vitro (as low as) (SH-SY5Y; FIG. 1, sulforhodamine B): ≥ 5 µM"
CN(C)CC[S+]([O-])c1nn2cc(-c3cccc(F)c3)nc2s1 (stereo not drawn) [Compound 29],1000 nM,IC50 (SCG neurons [2]): 3000 nM
[O-][S+](Cc1ccncc1)c1nn2cc(-c3ccc(N4CCOCC4)cc3)nc2s1 (stereo not drawn) [Compound 30],> 10000 nM,
CC[S+]([O-])c1nn2cc(-c3ccc(OCCO)cc3)nc2s1 (stereo not drawn) [Compound 32],5000 nM,
CCS(=O)(=O)c1nn2cc(-c3ccc(OCCO)cc3)nc2s1 [Compound 33],1000 nM,

Structure (SMILES),IC50 (SCG neurons [1]; [6]),other results
CC(C)(C)OC(=O)NCC[S+]([O-])c1nn2cc(-c3ccccn3)nc2s1 (stereo not drawn) [Compound 35],2000 nM,
CC[S+]([O-])c1nn2cc(-c3ccccn3)nc2s1 (stereo not drawn) [Compound 37],2000 nM,
CC[S+]([O-])c1nn2cc(-c3cnccn3)nc2s1 (stereo not drawn) [Compound 40],3000 nM,
NCCS(=O)(=O)c1nn2cc(-c3ccccc3)nc2s1 [Compound 44],2000 nM,IC50 (SCG neurons [2]): 2000 nM
CS(=O)(=O)NCCS(=O)(=O)c1nn2cc(-c3ccccc3)nc2s1 [Compound 45],,IC50 (SCG neurons [2]): 1000 nM
CN(C)CC(=O)NCCS(=O)(=O)c1nn2cc(-c3ccc(F)cc3)nc2s1 [Compound 48],800 nM,
CC(=O)Nc1ccc(S(=O)(=O)c2nn3cc(-c4ccccn4)nc3s2)cc1 [Compound 52],1000 nM,
CN1CCN(CC[S+]([O-])c2nn3cc(-c4ccccc4)nc3s2)CC1 (stereo not drawn) [Compound 54],3000 nM,
CN1CCCN(CC[S+]([O-])c2nn3cc(-c4ccccc4)nc3s2)CC1 (stereo not drawn) [Compound 56.2HCl],,solubility [5]: > 100 mg/mL
CN1CCCN(CC[S+]([O-])c2nn3cc(-c4ccccc4)nc3s2)CC1 (stereo not drawn) [Compound 56],1000 nM,
[O-][S+](CCN1CCNCC1)c1nn2cc(-c3ccccc3)nc2s1 (stereo not drawn) [Compound 58],1000 nM,
CC(=O)N1CCN(CC[S+]([O-])c2nn3cc(-c4ccccc4)nc3s2)CC1 (stereo not drawn) [Compound 60],1000 nM,
[O-][S+](CCN1CCCCC1)c1nn2cc(-c3ccccc3)nc2s1 (stereo not drawn) [Compound 61],10000 nM,
[O-][S+](CCN1CCC(O)CC1)c1nn2cc(-c3ccccc3)nc2s1 (stereo not drawn) [Compound 62],10000 nM,
[O-][S+](CCN1CCC(Cc2ccccc2)CC1)c1nn2cc(-c3ccccc3)nc2s1 (stereo not drawn) [Compound 63],,IC50 (SCG neurons [1]; 48 h): 10000 nM
CC(=O)N1CCN(CC[S+]([O-])c2nn3c(-c4ccccc4)cnc3s2)CC1 (stereo not drawn) [Compound 65],10000 nM,
[O-][S+](CCN1CCN(Cc2ccccc2)CC1)c1nn2c(-c3ccccc3)cnc2s1 (stereo not drawn) [Compound 66],10000 nM,
CN1CCN(CCC[S+]([O-])c2nn3cc(-c4ccccc4)nc3s2)CC1 (stereo not drawn) [Compound 69],1000 nM,IC50 (SCG neurons [2]): 1000 nM
CN1CCN(CC[S+]([O-])c2nn3cc(-c4ccc(F)cc4)nc3s2)CC1 (stereo not drawn) [Compound 70],1000 nM,IC50 (SCG neurons [2]): 1000 nM
CN1CCN(CC[S+]([O-])c2nn3cc(-c4ccc5c(c4)OCCCO5)nc3s2)CC1 (stereo not drawn) [Compound 71],3000 nM,
